Data taken from patent US20010021394A1, “Induction of a cellular stress response with heavy metal salts” (priority 1996, published 2001).

Columns and labels:
warm renal ischemia = experiment: Warm ischemic injury of the rat kidney (renal vascular resistance); assay type: in vivo, Male Sprague-Dawley rats; details: following 60 minutes of warm ischemic injury, recorded as mm mercury/ml fluid/gram of tissue, control approximately 60, uninjured 43-44
Method: Male Sprague-Dawley rats were stress conditioned and subjected to warm ischemic injury using methods similar to those previously described in Perdrizet et al., supra. The non-treated control animals underwent 60 minutes of occlusion of the renal artery at 35-37° C. as an ischemic insult. Following the ischemic injury, flow was reestablished in the kidney and vascular resistance of the kidney was measured. To measure renal vascular resistance, a syringe system was attached to the renal artery, to give a constant flow rate of approximately 0.5 cc/minute. Since there was a constant flow rate, it was possible to measure the pressure generated in the syringe. The higher the pressure, the greater the resistance. Renal vascular resistance was recorded as mm mercury/ml fluid/gram of tissue.

spinal cord ischemia = experiment: Acute spinal cord ischemia in the rabbit (aortic occlusion, neurologic function after reperfusion); assay type: in vivo, New Zealand white rabbits; details: 0.15 mg per kilogram subcutaneous, sixteen hours prior to 20 minutes aortic occlusion at 37° C., evaluated 24 hours after reperfusion, four animals
Source text: New Zealand white rabbits were stress conditioned and subjected to spinal cord ischemia using methods similar to those previously described in Perdrizet et al., “Stress conditioning: A novel approach to organ preservation”, Current Surgery, 46(1): 23-26 (January-February 1989), the contents of which are incorporated herein by reference in their entirety. The rabbits were subjected to spinal cord ischemia by occlusion of the infrarenal-abdominal aorta as an ischemic insult to the spinal cord, for 20 minutes at 37° C. The occlusion was then removed and blood flow re-established to the infra-renal aorta. Neurological function of the lower extremities was evaluated 24 hours after reperfusion. Four animals were pretreated with a subcutaneous injection in the rump region of stannous chloride (SnCl2) in a saline diluent at a dose of 0.15 mg per kilogram (0.00066 millimoles per kilogram), sixteen hours prior to aortic occlusion.

[Cl][Sn][Cl] [SnCl2, stannous chloride]
Renal vascular resistance (warm renal ischemia): 45 resistance units
Neurological function of the lower extremities (spinal cord ischemia): all four animals pretreated with SnCl2 had normal neurologic function
